Assays:
HDAC1 [1] = target: T1, HDAC1 (Homo sapiens, UniProt Q13547); test: in vitro histone decrotonylation/deacetylation assay with recombinant HDAC1, western blot readout; assay type: biochemical
HDAC1 [2] = target: T1, HDAC1; test: in vitro histone decrotonylation/deacetylation assay with recombinant HDAC1; also used by HDAC1 to crotonylate histones at […] or higher; assay type: biochemical

T1 sequence (Q13547 whole entry): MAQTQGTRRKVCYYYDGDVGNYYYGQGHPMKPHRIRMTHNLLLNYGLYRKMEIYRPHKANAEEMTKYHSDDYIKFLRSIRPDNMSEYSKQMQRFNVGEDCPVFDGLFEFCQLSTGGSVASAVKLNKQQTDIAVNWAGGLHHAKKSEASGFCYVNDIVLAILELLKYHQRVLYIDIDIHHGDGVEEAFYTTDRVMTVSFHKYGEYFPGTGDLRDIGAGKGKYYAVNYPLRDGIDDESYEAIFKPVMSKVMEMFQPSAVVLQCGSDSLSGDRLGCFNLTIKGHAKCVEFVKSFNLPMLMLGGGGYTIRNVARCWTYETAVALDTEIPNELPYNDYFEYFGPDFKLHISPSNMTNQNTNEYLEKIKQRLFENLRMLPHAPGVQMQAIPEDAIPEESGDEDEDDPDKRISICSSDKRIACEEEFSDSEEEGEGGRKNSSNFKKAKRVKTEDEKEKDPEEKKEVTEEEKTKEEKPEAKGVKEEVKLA

CCCC(=O)O [butyrate]
in vitro histone decrotonylation/deacetylation assay with recombinant HDAC1, wes (HDAC1 [1]): In vitro, HDAC inhibitors TSA and butyrate reduced decrotonylation by HDAC1 significantly

CC=CC(=O)O [crotonate]
in vitro histone decrotonylation/deacetylation assay with recombinant HDAC1; als (HDAC1 [2]): We also found that crotonate inhibited decrotonylation and deacetylation in vitro (Fig. 7c).
